Entries after “also recorded” stand apart in the source; their conditions may differ. Where no end group is shown, it is not given here.
How the values were obtained:
[1] = SSTN stability assay in mouse serum; assay type: in vitro ADME; details: for stability in serum (in words): mouse (rodent) serum, up to 72 hr; for stability in serum (in words) / stability (activity retained): 37° C.; for stability (activity retained): mouse serum, 3 days (SSTNIGF1R: more than 3 days)
Experimental: FIG. 16. SSTNI/V IS STABLE IN RODENT SERUM, EQUIVALENT TO SSTNIGF1R AND SSTNVLA4. SSTNI/V, SSTNIGF1R and SSTNVLA4 were incubated at 37° C. for up to 72 hr in mouse serum. Note that rodent serum is known to contain substantial proteolytic activity against peptides. A GRGDSP integrin-inhibitory peptide was used as control, tested against endothelial cell adhesion to fibronectin. Either myeloma cell viability, or endothelial cell adhesion to IIICS fragment was used to test the activity of the SSTN peptides. SSTN peptides were used at up to 30 μM, and the GRGDSP peptide was used up to 1 mM. Activity observed in the assays was plotted against a standard curve to determine relative activity.
(§1) For stability assays, SSTNIGF1R, SSTNVLA4, SSTNI/V and GRGDSP peptide (SEQ ID NO:31; EMD Millipore) were incubated in human plasma (obtained from the UW-Madison Hospital Blood Bank) for 0, 8, 24 or 72 hr, then tested in the endothelial cell adhesion assay or cell viability assay and compared to a standard curve generated using fresh peptide.

[2] = SSTN stability assay in human plasma; assay type: in vitro ADME; details: more than 3 days at 37° C.
Experimental: as §1

[3] = SSTN stability in bovine serum; assay type: in vitro ADME; details: more than 3 days at 37° C.
[4] = test system: M21 murine melanoma cells; experiment: Melanoma cell invasion through filters coated with fibronectin; assay type: cell-based, mouse; details: 16 hr, 30 μM peptide
Experimental: FIG. 17. […] M21 murine melanoma cells are allowed to migrate for 16 hr through filters coated with fibronectin. The relative roles of the αvβ3 integrin and the α4β1 integrin (VLA-4) are determined using blocking antibodies to αv and α4 integrin subunits, or both antibodies combined.

[5] = test system: B78 murine melanoma cells; experiment: Melanoma cell survival (trypan blue exclusion); assay type: cell-based, mouse; details: up to 72 hr, 30 μM
Experimental: FIG. 18. SSTNI/V BLOCKS SURVIVAL OF MOUSE MELANOMA CELLS. B78 murine melanoma cells grown in serum-containing DMEM are incubated for up to 72 hr in 30 μM SSTNVLA4, SSTNIGF1R or SSTNI/V, then viable cells were quantified by trypan blue exclusion.
All cells were cultured at 37° C. and 92.5% air/7.5% CO2. The derivation and culture of CAG myeloma and HMEC-1 cells are described previously (Ades et al. 1992, Rapraeger et al. 2013). B78 murine melanoma cells were kindly provided by Dr. Sondel, Department of Pediatrics, University of Wisconsin-Madison. All cells are routinely screened for mycoplasma contamination. For viability studies, 2.5×10^4 myeloma cells/well or 10^4 B78 murine melanoma cells were plated in 96-well plates in complete DMEM containing 10% calf serum in the presence or absence of SSTN peptides for 24, 48 or 72 hrs. Numbers of viable cells were then determined by addition of CellTiter-GLO reagent to the culture medium as described by the manufacturer and viable cells determined by staining with 0.4% trypan blue and counting cells that exclude (viable) or take up (dead) the stain.

[6] = Beauvais et al., 2016; plasma species not printed at the place; cited from earlier work
[7] = Beauvais et al., 2016; cited from earlier work
[8] = test system: CAG myeloma tumor xenografts; details: nude mice, Alzet pumps 0.365 mg/kg/day, 4 weeks; modified from Beauvais et al. 2016; cited from earlier work
[9] = test system: Apoptosis signal regulating kinase-1 (ASK1); details: CAG or MM.1R myeloma cells, 6 hr, 10 μM; modified from Beauvais et al. 2016; cited from earlier work
[10] = test system: UM-SCC47, SCC25, MDA-MB-468, MDA-MB-231, MCF-7 and SKBr3 carcinoma cells; details: 3, 10 or 30 μM, 3 days; Beauvais et al. 2016; cited from earlier work
[11] = test system: HaCaT keratinocytes and MCF10A breast epithelial cells; details: 3, 10 or 30 μM, 3 days; Beauvais et al. 2016; cited from earlier work
[12] = test system: angiogenesis in the mouse cornea; details: induced by FGF in the mouse cornea; Beauvais et al., 2009; cited from earlier work
[13] = test system: CAG myeloma, mouse M21 melanoma, human microvascular endothelial and Jurkat T-lymphoma cells; experiment: Cell adhesion to VCAM-1; assay type: cell-based; details: 2 hr, 30 μM
Experimental: (§2) FIGS. 11A, 11B, 11C, and 11D. […] 11A. CAG myeloma, mouse M21 melanoma, human microvascular endothelial and Jurkat T-lymphoma cells are plated on VCAM-1 for 2 hr in the presence or absence of 30 μM SSTNVLA4 or VLA-4 blocking antibody as a test of specificity. Numbers of adherent cells are quantified and expressed as a percentage of control, untreated cells in FIG. 11B. 11C. Cells are plated on top of filters coated with VCAM-1 allowed to migrate for 16 hr in the presence or absence of 30 μM SSTNVLA4. Cells accumulating on the bottom of the filters are visualized by staining. 11D. Expression level of Sdc1 and VLA-4 are shown by Western blot staining of mouse natural killer (NK) and T-cells harvested from mouse spleens.

[14] = test system: myeloma, melanoma, microvascular endothelial and T-lymphoma cells; experiment: Migration through filters coated with VCAM-1; assay type: cell-based; details: 16 hr, 30 μM
Experimental: as §2

[15] = test system: CAG myeloma cells; details: CAG myeloma cells plated on FN for 2.5 hr; 0, 0.3, 3, or 30 μM; modified from Jung et al. 2016; cited from earlier work
[16] = test system: HMEC-1; details: 16 h, 30 μM; modified from Jung et al. 2016; cited from earlier work
[17] = test system: VEGFR2; details: 2 h on IIICS, 10 μM; modified from Jung et al. 2016; cited from earlier work
[18] = test system: HMEC-1 cells; details: 20 ng/ml VEGF, 30 μM, 24 h; modified from Jung et al. 2016; cited from earlier work

Question: With `N=C(N)NCCC[C@H](NC(=O)CN)C(=O)NCC(=O)N[C@@H](CC(=O)O)C(=O)N[C@@H](CO)C(=O)N1CCC[C@H]1C(=O)O` [GRGDSP] as the molecule, how does the “time to complete inactivation” value ([1]; control peptide, tested by endothelial cell adhesion to fibronectin) read?
Answer: ≤ 8 h

Question: What about the “stability in serum (in words)” value [1] of the same molecule?
Answer: destroyed within a matter of a few hr

Question: Which “stability in serum (in words)” value [1] does the source give for “LPAGEGPKEGEAVVLPEVEPGLTAREQDFTFETSGENTA [SSTNI/V]” here?
Answer: highly stable; also recorded: same remarkable stability

Question: And the “stability (activity retained)” value [1]?
Answer: 100%

Question: Which “stability (activity retained)” value [1] does the source give for “SSTNIGF1R: peptide mimetic of the Sdc1 docking site (aa93-120 in human Sdc1) that captures IGF-1R and the αvβ3 or αvβ5 integrin” here?
Answer: 100%

Question: What about the “stability (activity retained)” value [2] of the same molecule?
Answer: 100%

Question: What about the “stability (activity retained)” value [3] of the same molecule?
Answer: 100%

Question: And the “block of melanoma cell invasion” value [4]?
Answer: partially block; also recorded: partial block

Question: And the melanoma cell survival [5]?
Answer: killed; also recorded: blocked

Question: And the “stability when incubated in plasma” value [6]?
Answer: remarkable stability

Question: And the half-life in vivo [7]?
Answer: ca. 27 hr

Question: And the “growth of myeloma tumors” value [8]?
Answer: INHIBITS GROWTH

Question: What about the ASK-1 activation [9] of the same molecule?
Answer: ACTIVATES

Question: What about the “growth of carcinoma cells” value [10] of the same molecule?
Answer: BLOCKS THE GROWTH

Question: What about the “growth of normal epithelial cells” value [11] of the same molecule?
Answer: not affected and NOT

Question: And the “abnormal angiogenesis in vivo” value [12]?
Answer: block abnormal angiogenesis

Question: Which “stability (activity retained)” value [1] does the source give for “SSTNVLA4: peptide mimetic of the VLA-4 binding site of Sdc1, comprised of amino acids 210-233 (or 210-221) (DFTFETSGENTAVVAVEPDRRNQS)” here?
Answer: 100%

Question: What about the “block of melanoma cell invasion” value [4] of the same molecule?
Answer: partially block; also recorded: partial block

Question: And the melanoma cell survival [5]?
Answer: only a minimal effect; also recorded: only minimally

Question: What about the “binding of cells to the VLA-4 ligand VCAM-1” value [13] of the same molecule?
Answer: prevented

Question: What about the “invasion of cells through VCAM-1-coated filters” value [14] of the same molecule?
Answer: BLOCKS THE INVASION

Question: What about the “invasion of cells through VCAM-1-coated filters” value ([14]; listed as SSTNVLA-4) of the same molecule?
Answer: prevented

Question: And the “VLA-4-mediated adhesion of myeloma cells” value [15]?
Answer: displaced from VLA-4 ligands; also recorded: BLOCKS

Question: And the endothelial cell invasion [16]?
Answer: BLOCKS

Question: And the VEGFR2 activation [17]?
Answer: BLOCKS

Question: What about the tube formation [18] of the same molecule?
Answer: prevents the angiogenic phenotype; also recorded: BLOCKS
